Results on one molecule are retold here after patent US8217031B2, “Heteroaryl derivatives” (Nippon Shinyaku Co., Ltd., priority 2007, dated 2012).

As a reminder, the Ki is a dissociation constant, usually derived from enzyme kinetics or from competition with a known ligand.

Experiment [1] concerns the target T1, [3H]serotonin re-uptake in synaptosome (Rattus norvegicus, UniProt P31652).
T1 construct: to give a synaptosome solution; from tissue; host or cells: rat cerebral cortex synaptosomes (male SD rats)
Briefly: Inhibition of serotonin reuptake in rat cerebral cortex synaptosome. The experiment is classed as biochemical. Particulars: Ki calculated from IC50 and Kd, read-out: Serotonin Reuptake Inhibiting Activity, Ki value. How it is done: (§1) Experiments for Inhibition of Serotonin Reuptake and Experiments for Inhibition of Norepinephrine Reuptake
(§2) Cerebral cortex of male SD rats (JAPAN SLC Inc.), over six weeks of age was excised and a 0.32M sucrose solution was added thereto in an amount of 10 mL per gram of the cerebral cortex followed by homogenizing. The homogenized solution was centrifuged, the supernatant thereof was further centrifuged at high speed and, to the resulting pellets, a PSS solution (pH 7.4; comprising 150 mM of NaCl, 4 mM of KCl, 1 mM of MgCl2, 2.5 mM of HEPES, 0.9 mg/mL of glucose, 0.176 mg/mL of ascorbic acid and 1 mM of pargylin) was added in an amount of 10 mL per gram of the pellets to give a synaptosome solution. A compound to be tested (100 μL) was added to 100 μL of the synaptosome solution and 700 μL of a 50 mM Tris buffer (pH 7.4; trihydroxylaminomethane) followed by subjecting to pre-incubation at 37° C. for 5 minutes. After the pre-incubation, 100 μL of [^3H]serotonin or [^3H]norepinephrine diluted to 10 nM and 20 nM, respectively, with a Tris buffer was added thereto followed by incubating at 37° C. for 5 minutes.
(§3) Synaptosome was recovered on a GF/B filter using a cell harvester and further washed three times using a washing solution (50 mM Tris buffer; pH 7.4; 4° C.). The filter was transferred to a vial, a scintillator was added thereto and the radiation activity was measured using a liquid scintillation counter.
(§4) Incidentally, the non-specific reaction was defined as the radiation activity under ice-cooling (4° C.) and the difference between the total radiation activity and the radiation activity under the non-specific reaction was adopted as the radiation activity specifically re-uptaken in the synaptosome. IC50 value was determined from the re-uptake inhibition rate in the presence of a test compound and, from IC50 value and the Kd value of [^3H]serotonin or [^3H]norepinephrine, Ki value of the test compound showing a re-uptake inhibiting activity of serotonin or norepinephrine, respectively, was calculated.

The target of experiment [2] is T2, [3H]norepinephrine re-uptake in synaptosome (Rattus norvegicus, UniProt Q9WTR4).
T2 construct: to give a synaptosome solution; from tissue; host or cells: rat cerebral cortex synaptosomes (male SD rats)
Briefly: Inhibition of norepinephrine reuptake in rat cerebral cortex synaptosome. The conditions noted are these: Ki calculated from IC50 and Kd, read-out: Norepinephrine Reuptake Inhibiting Activity, Ki value. It is filed as biochemical. How it is done:
as §1, §2, §3, §4

For the next experiment, the system named is rats under anesthesia. Put plainly: Measurement of urine leak point pressure in rats under anesthesia. The experiment is classed as in vivo, rat. Particulars: intravenous administration of not more than 10 mg/kg; female rats, urethane anesthesia, thoracic spine cut at T8 to T9. How it is done:
Measurement of Urine Leak Point Pressure in Rats Under Anesthesia Under anesthesia with urethane (1.2 g/kg; subcutaneous administration), the thoracic spine of female rats of 8 to 12 weeks of age (Japan SLC Inc.) was cut at the level of T8 to T9 so that the micturition reflex was made to disappear, then the abdomen was subjected to a median incision to expose the bladder and then a cannula was inserted into the bladder. An appropriate amount (ca. 0.4 mL) of a physiological saline was previously infused into the bladder, both sides of the bladder were gradually pressed with two cotton buds and the inner pressure of the bladder when the physiological saline solution leaked out from the urethral orifice was measured as a pressure upon leakage of urine. The measurement was repeated several times until the measured values became stable and, after that, the test compound was intravenously administered and a pharmacological effect of the test compound was evaluated.

Structures are written as SMILES.

T1 sequence (P31652 whole entry): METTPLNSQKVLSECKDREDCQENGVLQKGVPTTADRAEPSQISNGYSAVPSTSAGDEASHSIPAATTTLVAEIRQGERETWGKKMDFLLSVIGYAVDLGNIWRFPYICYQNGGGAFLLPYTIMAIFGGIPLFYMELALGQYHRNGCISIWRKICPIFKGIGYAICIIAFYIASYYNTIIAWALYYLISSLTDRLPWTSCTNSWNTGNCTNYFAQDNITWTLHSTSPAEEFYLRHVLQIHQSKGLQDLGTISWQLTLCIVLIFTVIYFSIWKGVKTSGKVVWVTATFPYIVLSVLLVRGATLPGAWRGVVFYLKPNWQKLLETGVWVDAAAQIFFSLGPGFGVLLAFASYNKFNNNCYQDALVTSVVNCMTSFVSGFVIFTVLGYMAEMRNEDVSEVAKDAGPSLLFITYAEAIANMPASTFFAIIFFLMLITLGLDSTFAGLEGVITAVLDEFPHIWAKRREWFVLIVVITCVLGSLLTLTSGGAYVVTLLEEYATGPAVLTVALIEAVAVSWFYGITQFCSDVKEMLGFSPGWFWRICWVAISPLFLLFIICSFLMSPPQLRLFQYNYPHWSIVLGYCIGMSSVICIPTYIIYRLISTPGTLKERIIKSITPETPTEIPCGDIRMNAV
T2 sequence (Q9WTR4 1-597): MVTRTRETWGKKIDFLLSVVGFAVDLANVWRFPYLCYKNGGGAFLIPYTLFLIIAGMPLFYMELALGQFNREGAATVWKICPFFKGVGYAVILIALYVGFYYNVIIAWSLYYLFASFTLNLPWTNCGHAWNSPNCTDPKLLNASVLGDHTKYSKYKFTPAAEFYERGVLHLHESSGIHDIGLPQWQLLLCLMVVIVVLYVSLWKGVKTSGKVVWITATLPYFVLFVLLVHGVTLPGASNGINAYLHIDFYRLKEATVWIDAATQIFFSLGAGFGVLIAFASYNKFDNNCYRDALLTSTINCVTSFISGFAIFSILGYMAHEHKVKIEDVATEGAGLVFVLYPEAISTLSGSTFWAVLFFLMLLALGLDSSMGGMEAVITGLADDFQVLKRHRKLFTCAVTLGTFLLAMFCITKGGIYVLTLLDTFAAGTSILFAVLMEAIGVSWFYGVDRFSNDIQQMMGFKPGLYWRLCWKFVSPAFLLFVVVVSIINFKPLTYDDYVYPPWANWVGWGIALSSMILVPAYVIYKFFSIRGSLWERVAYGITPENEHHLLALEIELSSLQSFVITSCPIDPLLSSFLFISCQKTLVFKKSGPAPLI

As for `Cc1cc2c(s1)CN(C)CCC2Oc1cccc2ccccc12.Cl` (stereo not drawn) [Example 102, 2,7-Dimethyl-4-(naphthalen-1-yloxy)-5,6,7,8-tetrahydro-4H-thieno[2,3-c]azepine hydrochloride], the Ki is 3.4 nM in experiment [1] and 4 nM in experiment [2]. The “leak point pressure (pressure upon leakage of urine)” value in the experiment with rats under anesthesia is reported as “raised the leak point pressure”.
